# “And” between values parts separate entries of the source, which are not always exact repeats. Identical values can stand only once.
# How the values were obtained:
# Format in all cases: cell-based, human
# HeLa cells = assay: siRNA library screen for sensitization to Cisplatin (Alamar Blue growth)
# Procedure: The primary screen with each agent was performed in HeLa cells, which are TP53 deficient. HeLa cells were transfected with siRNA pools, and the drugs were added 4 hrs later. […] The growth of cells +/−drug was assessed at 72 hrs post-transfection.
# siRNA transfection was carried out as follows: one day prior to transfection, 50 microliters of a chosen cell line, e.g., cervical cancer HeLa cells (ATCC, Cat. No. CCL-2), grown in DMEM/10% fetal bovine serum (Invitrogen, Carlsbad, Calif.) to approximately 90% confluency were seeded in a 384-well tissue culture plate at 450 cells/well. For each transfection 20 microliters of OptiMEM (Invitrogen) was mixed with 2 microliter of siRNA (Dharmacon, Lafayette, Colo.) from a 10 micromolar stock. For each transfection, a ratio of 20 microliter of OptiMEM was mixed with 1 microliter of Oligofectamine reagent (Invitrogen) and incubated 5 minutes at room temperature. Then 20-microliter OptiMEM/Oligofectamine mixture was dispensed into each well of the 96 well plate with the OptiMEM/siRNA mixture, mixed and incubated 15-20 minutes at room temperature.
# The internal environment of the proliferating cell is more reduced than that of non-proliferating cells.
# TP53-negative A549 cells = assay: Alamar Blue cell growth, cisplatin after siRNA supertransfection, TP53-negative cells (FIG. 20)
# Procedure: A549 cells stably transfected with empty vector (pRS, left panel) or an shRNA targeting TP53 (pRS-TP53, right panel) were supertransfected with siRNAs to luciferase, BRCA1, or BRCA2 prior to treatment with the DNA damaging agent, cisplatin. Cell growth was measured 72 hrs post-transfection using Alamar Blue.
# The cell lines used in this example were HeLa cells, TP53-positive A549 cells and TP53-negative A549 cells. The matched pair of TP53 positive and negative cells were generated by stable transfection of short hairpin RNAs (shRNAs) targeting TP53 (monthly highlt highlight, November 2003). […]
# After 4 hours, 100 microliter/well of DMEM/10% fetal bovine serum with or without DNA damage agents was added to each well to reach the final concentration of each agents as described above. […] Samples from the 6-well plates were analyzed for cell cycle profiles and samples from 96-well plates were analyzed for cell growth with Alamar Blue assay.
# For Alamar Blue assay, the media from the 96-well plates was removed, and 100 uL/well complete media containing 10% (vol/vol) alamarBlue reagent (BioSource International, Inc) and 1/100th volume 1M Hepes buffer tissue culture reagent was added. The plates were then incubated 1-4 hours at 37° C. and fluorescence was measured by exciting at 544 nm and detecting emission at 590 nm with […]ax Gemini-Xs Spectrofluorometer (Molceular Devices). […]
# TP53 mRNA [1] = assay: TP53 knockdown by TaqMan, pRS-p53 shRNA in HCT116 cells
# Excerpt: In another specific embodiment, the invention provides a method for determining synthetic lethality between p53 and CHEK1. Stable clones having p53 gene silenced was generated. The pRS-TP53 1026 shRNA plasmid was deconvoluted from a library plasmid pool for TP53 by transforming bacteria with the pool and looking for clones containing only the plasmid of interest. The sequences used are as follows: pRS-p53 1026 19mer sequence: […] (SEQ ID NO:43); primers for sequence specific PCR: Forward: […] (SEQ ID NO:44), Reverse: […] (SEQ ID NO:45). Plasmids were identified by sequence specific PCR, and confirmed by sequencing. Stable p53-clones were generated by transfecting HCT116 cells using FuGENE 6 (Roche) with the pRS-TP53 1026 plasmid. Cells were split into 10 cm dishes plus 1 ug/ml puromycin 48 hours later, and maintained until colonies were evident (5-7 days). Clones were picked into a 96 well plate, maintained in 1 ug/ml puromycin, and tested for knockdown by TaqMan using the TP53 and hGUS Pre-Developed Assay Reagent (Applied Biosystems). To measure transient knockdown by the pRS-TP53 1026 plasmid, HCT116 cells were transfected using Lipofectamine 2000 (Invitrogen), and RNA harvested 24 hours later. TP53 transcript levels were assessed by TaqMan. […]
# CHEK1 and TP53 mRNA = assay: Competition between stable TP53 shRNA and CHEK1 siRNA pool, TaqMan (FIG. 4A); details: HCT116 clone A11, siRNA pool 100 nM, 24 hours
# Procedure: A pool of three siRNAs targeting CHEK1 was transiently transfected into WT and pRS-p53 stably transfected HCT116 cells (clone A11). CHEK1 and TP53 mRNA levels were measured by Taqman analysis (left and right panels, respectively). […] STK6 and KNSL1 siRNAs were transiently co-transfected into WT SW480 cells and KNSL1 siRNAs were supertransfected into pRS-STK6 stably transfected SW480 cells. STK6 mRNA levels were measured by Taqman analysis. For the left set of bars, STK6 siRNA (10 nM) was used alone or together with one of three different individual KNSL1 siRNAs (10 nM each). […]
# To test whether TP53 silencing in HCT116 clone A11 was subject to competition with siRNAs, cells of this clone were supertransfected with a pool of CHEK1-specific siRNAs. […] RNA was harvested 24 hours post transfection and knockdown was assessed by TaqMan analysis using the CHK1 or TP53 and hGUS Pre-Developed Assay Reagent (Applied Biosystems). […] This is in contrast to the observation that two different siRNAs targeting distinct mRNAs compete with each other when transfected together, effectively decreasing the efficacy of one or both of the siRNAs used. pRS and pRS-p53 HCT116 cells were transiently transfected with siRNA pools for ˜800 genes (see Example 3, infra) and measured effects on cellular growth by Alamar Blue assay. […]
# TP53 mRNA [2] = assay: TP53 mRNA silencing in A549 cells stably transfected with pRS-p53; details: stable A549 pRS-p53 cells versus pRS cells
# Procedure: (§1) Next, supertransfection of the CHEK1 siRNA pool into cells stably expressing TP53 shRNAs was evaluated to determine if it could be used to investigate genetic interactions (SL) between these molecules. Matched cell lines +/−TP53 expression were generated by selecting stable clones of A549 lung cancer cell lines containing either empty pRS vector or pRS-p53. […] Both cell lines were then supertransfected with either control luciferase siRNA (luc, 100 nM) or the CHEK1 siRNA pool (100 nM total; 33 nM each of 3 siRNAs) and their cell cycle profiles examined with or without exposure to the DNA damaging agent, doxorubicin (Dox, FIG. 5). Cell cycle profiles of pRS-p53 cells were not appreciably different from those of pRS cells in the absence of Dox.
# as §1, with “molecules. […]” for “molecules.”, “Cell cycle profiles of pRS-p53 cells were not appreciably different from those of pRS cells in the absence of Dox.” left out
# [3] = cisplatin, HeLa cell growth, 72 hrs
Molecule,EC25 (HeLa cells; 400 ng/ml stated to be an <EC25 concentration),EC10 (HeLa cells; [3]),EC50 (HeLa cells; [3]),IC50 (TP53-negative A549 cells; cells transfected with BRCA1 or BRCA2 siRNAs),IC50 (TP53-negative A549 cells; cells transfected with control siRNA (luciferase)),TP53 mRNA silencing (TP53 mRNA [1]; stable clones A5 and A11),"TP53 mRNA silencing (TP53 mRNA [1]; transient transfection, 24 hr post transfection)",competitive inhibition of silencing between TP53 shRNA and CHEK1 siRNA pool (CHEK1 and TP53 mRNA),TP53 mRNA silencing (TP53 mRNA [2])
"N.N.[Cl][Pt][Cl] [cisplatin, cis-Diaminedichloroplatinum]",> 0.4 µg/mL,~0.1 µg/mL,~0.4 µg/mL,~0.1 nM,~1 nM,–,–,–,–
GACTCCAGTGGTAATCTAC [pRS-p53],–,–,–,–,–,> 95%,~80%,does not affect,> 90% and ~90%

# Reference: patent publication US20050181385A1, “Synthetic lethal screen using RNA interference” (priority 2003, published 2005)
